Experimental data as given in patent publication US20190248834A1, “ENDOMORPHIN-2, TETRAPEPTIDE DERIVATIVES THEREOF, AND USES THEREOF” (priority 2016, published 2019).
Non-standard residues stand in square brackets, D forms with d. pGlu = O=C1CC[C@@H](C(=O)O)N1

Legend:
Format in all cases: in vivo, human
[1] = system: back neck pain after cervical implant; assay: Example 90: analgesic effect on post-surgery pain and discomfort, topical; conditions: 1% (w/v) in WEP442, topical
From the text: A subject had painful discomfort of their back neck for 2 years caused by a surgical titanium implant of the 7th cervical vertebra 2 years earlier. During the past years, the pain and discomfort had been improved from occasional treatments with acupuncture and massage therapy. However, such treatments provided only short term relief of pain and discomfort, usually one or two pain free days after each treatment.
On one afternoon, pain and discomfort suddenly developed. The subject topically applied a composition containing 1% (w/v) of N-Ac-Tyr-Pro-Phe-Phe-NH2 (SEQ ID NO: 23) in WEP442 solution to skin of their back neck area. […] The subject was free of pain and discomfort for at least 12 hours (4+ effect).

[2] = system: very severe headaches with nausea and vomiting; assay: Example 24: analgesic effect on severe headaches, topical
From the text: A subject had very severe headaches and associated nausea and vomiting, which occurred 1-2 times weekly. […] Over this interval, the frequency of headaches decreased to every 7-10 days, and the intensity of pain at the onset of each episode was diminished.

[3] = system: finger pain following trauma; assay: Example 31: analgesic effect on painful inflammation following trauma, topical; conditions: 1% (w/v) in WEP442, topical
Method: A subject, experienced sharp pain in their right index finger while trying to loosen a screw-on lid of a fruit jar with their right hand. After about 10 minutes, the pain became throbbing in nature and very intense. The proximal interphalangeal became swollen and discolored (black and blue) from subcutaneous hemorrhage. […] Discoloration of the joint faded over the next several days.

[4] = system: arthritic pain in upper back; assay: Example 20: analgesic effect on arthritic pain of upper back, topical
Method: A subject had arthritic pain in their upper back and associated paresthesia of their fingers, described as feelings of tingling and “pins and needles”. These symptoms had been present for about 1 year. […] Pain relief lasted for 10-12 hours. […] Repeated applications for 10-12 days gave the same results.

[5] = system: severe migraine headaches; assay: Example 41: analgesic effect on migraine headaches, topical
From the text: A subject with severe migraine headaches associated with nausea and vomiting that had been occurring 3-4 times per month over the past 9-10 years, topically applied a composition containing 1% (w/v) of N-Ac-Tyr-Pro-Phe-Phe-NH2 (SEQ ID NO: 23) in WEP442 to the forehead, brow, eyelids and temporal areas at the onset of headaches. […] The frequency of episodes diminished over the next two months, and the subject reported that they experienced no headaches for at least a 5 week period.

tennis elbow pain = assay: Example 68: analgesic effect on tennis elbow pain, topical
From the text: A person who played tennis recreationally for several decades developed increasingly severe pain in the elbow of their right arm. Two acupuncture treatments provided partial relief. […] They now play tennis with no pain.

[6] = system: traumatized right big toe; assay: Example 34: analgesic effect on pain in big toe following trauma, topical; conditions: 1% (w/v) in WEP442, topical
Method: A subject, traumatized their right big toe while repositioning heavy furniture, and experienced disabling persistent pain of that toe. About 10 minutes after the trauma occurred, they topically applied a composition containing 1% (w/v) of N-Ac-Tyr-Pro-Phe-Phe-NH2 (SEQ ID NO: 23) in WEP442 to the toe.

[7] = system: mechanically induced skin pain; assay: Example 91: experimentally induced skin pain (needle roller), topical; conditions: 1% (w/v) in WEP442, topical before and after wounding
From the text: A subject, rolled onto their left forearm with forceful pressure a roller having many tiny stainless steel needles 1 mm in length, which penetrated through the epidermis causing sharp pain as well as punctate bleeding.

[8] = system: jaw pain after tooth extraction; assay: Example 29: analgesic effect on dental extraction pain, topical
Method: A subject had substantial pain in the right maxillary jaw that started about 2 hours after extraction of a right maxillary tooth. […] Only negligible discomfort, perceived by touching the extraction site with the tongue, was detectable thereafter.

right shoulder pain = assay: Example 77: analgesic effect on pain from shoulder strain, topical; conditions: 0.5% (w/v) in WEP442, topical
Method: A subject, presented with right shoulder pain for a duration of 5 days, which developed after carrying a very heavy grocery bag for several city blocks. The pain was increased by their attempts to lift their arm to an elevated position, and further increased from rotational arm movements. […] Such relief lasted for about 6 hours, at which time re-application provided the same relief.

stress induced headache = assay: Example 51: analgesic effect on stress induced headache, topical
From the text: The onset of the headache was associated with emotional stress. Within two hours, the intensity of the headache became almost disabling, whereupon […] applied a solution composition containing 1% (w/v) N-Pg-Ty-Pro-Phe-Phe-NH2 (SEQ ID NO: 44) in WEP442 to the entire frontal and upper facial areas. […] At that time, the solution was generously applied a second time. […] The analgesic effect was judged to be 100%.

[9] = system: painful arthritis of hands; assay: Example 76: analgesic effect on arthritis pain of the hands, topical; conditions: 0.5% (w/v) in WEP442, topical; before about 20 minutes
Method: A subject, and a veteran guitar player, was able to play their instrument in previous years for about an hour in group session performances. […] The subject reported that topical application to their hands of a composition containing 0.5% (w/v) of N-Pg-Tyr-Pro-Phe-Phe-NH2 (SEQ ID NO: 44) in WEP442 enabled them to play their guitar for 1 hour pain free. They also noted that the quality of their performance had improved.

[10] = system: acute right temporal nauseating headache; assay: Example 49: topical treatment of severe right temporal headache; conditions: 1% (w/v) in WEP442, topical
From the text: They were given, by a nearby companion, a solution composition containing 1% (w/v) of N-Pg-Tyr-Pro-Phe-Phe-NH2 (SEQ ID NO: 44) in WEP442, which they topically applied to the right temporal area, right closed eyelids, entire forehead and right eyebrow.

## CC(=O)N[C@@H](Cc1ccc(O)cc1)C(=O)N1CCC[C@H]1C(=O)N[C@@H](Cc1ccccc1)C(=O)N[C@@H](Cc1ccccc1)C(N)=O [N-Ac-Tyr-Pro-Phe-Phe-NH2]
[1]
  analgesic effect grade: 4+ (4+ (90-100%): complete relief or eradication of pain for more than 4 hours)
  duration free of pain and discomfort: at least 12 hours
  pain relief: the pain and discomfort disappeared
  time to pain relief: about 5 minutes
[2]; 1% (w/v) in WEP442, repeated uses over 3 months, before: 1-2 times weekly
  frequency of headaches (interval between headaches): 7 to 10 days
[2]; 1% (w/v) in WEP442, topical
  time to pain relief: 3 to 4 min
[2]; 1% (w/v) in WEP442, topical at onset of symptoms
  pain relief: completely relieve pain and any associated symptoms
[3]
  pain relief: instantaneous total relief of pain
  recurrence: No pain returned
[4]; 1% (w/v) in WEP442, daily topical to upper back
  pain relief: relieved the upper back pain completely
[4]; 1% (w/v) in WEP442, topical
  duration of pain relief: 10 to 12 h
  time to pain relief: 3 to 4 min
[4]; 1% (w/v) in WEP442, topical to upper back
  paresthesia of the fingers: persisted without any discernible change
[5]; 1% (w/v) in WEP442, topical
  time to pain relief: 2 to 3 min
[5]; 1% (w/v) in WEP442, topical at onset of headaches
  pain relief: Complete relief of pain and other symptoms
[5]; 1% (w/v) in WEP442, topical, over the next two months
  period without headaches: ≥ 5 week
Tennis elbow pain; 0.5% (w/v) in WEP442, about 1 week of several applications daily
  range of arm motion: returned to normal
Tennis elbow pain; 0.5% (w/v) in WEP442, topical
  pain relief: substantial relief of pain
  time to pain relief: 2 to 4 min
[6]
  pain relief: Complete relief of pain
  recurrence: did not return
  time to pain relief: 15 to 30 s
[7]
  effect on sharp punctate pain: did not prevent nor relieve the sharp punctate pain
[8]; 1% (w/v) in WEP442, topical
  time to pain relief: ≤ 1 min
[8]; 1% (w/v) in WEP442, topical to facial maxillary area
  pain relief: complete relief of pain

## N-Pg-Tyr-Pro-Phe-Phe-NH2 ([pGlu]YPFF-NH2; SMILES NC(=O)[C@H](Cc1ccccc1)NC(=O)[C@H](Cc1ccccc1)NC(=O)[C@@H]1CCCN1C(=O)[C@H](Cc1ccc(O)cc1)NC(=O)[C@@H]1CCC(=O)N1)
Right shoulder pain
  duration of pain relief: about 6 hours
  pain relief: rapid, complete relief of pain
Stress induced headache; 1% (w/v) in WEP442, first application, within about 5 minutes
  headache intensity: diminished in intensity
Stress induced headache; 1% (w/v) in WEP442, second application, within another 5 minutes
  pain relief: free of all headache pain
Stress induced headache; 1% (w/v) in WEP442, topical
  analgesic effect: 100%
  time without return of pain: ≥ 24 h
[9]
  pain free guitar playing time: 1 h
[10]
  pain relief: the headache subsided completely
  recurrence: did not return
  time to pain relief: 3 to 5 min
